Measured values as given in patent publication US20140179688A1, “PLOD-2 Modulators and Their Use in the Treatment of Skin” (AVON PRODUCTS, INC., priority 2012, published 2014).

Test system: PLOD-2
Test: PLOD-2 expression by qRT-PCR versus other anti-aging actives (Example 5)
Assay type: cell-based, Human
Settings: for Significant Increases in PLOD-2 Expression: 48 hours, fibroblasts, relative to vehicle; for induction of a significant level of PLOD-2 in skin cells: concentrations as in Table 5
Experimental: Normal Human Dermal Fibroblasts were Grown in DMEM (Mediatech; cat. #: 15-013-CV) containing 10% Fetal Bovine Serum (Perbio; cat. #: SH30070.03), Penicillin/Streptomycin (Mediatech, Cat #30-001-C1), L-Glutamine (Mediatech; cat. #: 25-005-CI) at 37° C. and 10% CO2. […] RNA was isolated using RNeasy RNA extraction kit (74106) from Qiagen. RNA concentrations were determined using NanoDrop Spectrophotometer ND 1000 ([…]).
RT reactions were conducted in a total volume of 20 μl using the High Capacity cDNA kit from AB (PN 4368814). The RT mixture was prepared to contain 2 μl 10× TaqMan RT buffer, 1.2 μl dNTP mix ([…]), 1.0 μl 10× Random Hexamer, 1 μl RNase Inhibitor, 1 μl MultiScribe Reverse Transcriptase ([…]), 100 ng of RNA, and RNase-free water to make up the final volume of 20 μl. The reaction was incubated at 25° C. for 10 min, 45° C. for 45 min, and then 95° C. for 5 min in a BIORAD MY CYCLER.
QPCR was carried out using Applied Biosystems Universal PCR Master Mix (PN 4369016). The mixture contained 10 μl of Taqman Universal PCR mix, 1 μl of primer and probe mix, 2 μl of RT product, and 7 μl of deionized water. All probes, Taqman assays were, were purchased from Applied Biosystems, Hs01118190 ml for PLOD-2, and human GAPDH (PN 4352934). The temperature profiles for qPCR were 50° C. for 2 min, and 95° C. for 10 min for 1 cycle, then at 95° C. for 15 sec, and 60° C. for 1 min for 40 cycles carried out in Stratagene Mx 3005P qPCR machine.
RNA isolated from cells were analyzed by qRT-PCR for expression levels of PLOD-2, using GAPDH as an internal control.

Molecule | Significant Increases in PLOD-2 Expression (5 μM) | Significant Increases in PLOD-2 Expression (10 μM) | induction of a significant level of PLOD-2 in skin cells | also measured
COC1=C(OC)C(=O)C(C/C=C(\C)CC/C=C(\C)CC/C=C(\C)CC/C=C(\C)CC/C=C(\C)CC/C=C(\C)CC/C=C(\C)CC/C=C(\C)CC/C=C(\C)CCC=C(C)C)=C(C)C1=O [Coenzyme Q10] | Yes (11%) | Yes (24%) | – | –
NC(=O)c1cccnc1 [Niacinamide] | – | – | did not induce a significant level of PLOD-2 | Significant Increases in PLOD-2 Expression (0.05%): No; Significant Increases in PLOD-2 Expression (0.10%): No
Oc1ccc(C=Cc2cc(O)cc(O)c2)cc1 [Resveratrol] | No | No | did not induce a significant level of PLOD-2 | –
COc1ccc(Cc2nc(=O)c(CCC(=O)N3CCC(C)CC3)n[nH]2)cc1OC [ALB-H09784893] | – | – | significantly stimulate | –
N#Cc1cccc(CN2CCNC(=O)CC2c2nccs2)c1 (centres unmarked) [ALB-H16063163] | – | – | significantly stimulate | –
N-Acetyl-Tyrosinamide | – | – | significantly stimulate | –
Hyaluronic Acid | – | – | did not induce a significant level of PLOD-2 | Significant Increases in PLOD-2 Expression (0.001%): No; Significant Increases in PLOD-2 Expression (0.005%): No
O=C(O)CO [Glycolic Acid (AHA), Glycolic Acid] | – | – | did not induce a significant level of PLOD-2 | Significant Increases in PLOD-2 Expression (0.05%): No; Significant Increases in PLOD-2 Expression (0.10%): No
CC1=C(/C=C/C(C)=C/C=C/C(C)=C/CO)C(C)(C)CCC1 [Retinol] | No | No | did not induce a significant level of PLOD-2 | –
